The values that follow come from patent publication US11013714B2, “Use of homoeriodictyol (HED) for reducing the gastric acid secretion-stimulating effect of n-acetyl-4-aminophenol (Paracetamol)” (SYMRISE AG, priority 2016, dated 2021).

Structures are written as SMILES. Values joined by “and” are separate entries in the source; they are usually repeats but may differ in a detail not shown here. Equal values may be shown once. Read-outs that look alike come from different tables or passages of the source.

Test [1] deals with HGT-1 cells. The following applies: cited from earlier work.
For a further test, the target named is T1, TAS2R43 (Homo sapiens, UniProt P59537).
T1 sequence (P59537 1-309): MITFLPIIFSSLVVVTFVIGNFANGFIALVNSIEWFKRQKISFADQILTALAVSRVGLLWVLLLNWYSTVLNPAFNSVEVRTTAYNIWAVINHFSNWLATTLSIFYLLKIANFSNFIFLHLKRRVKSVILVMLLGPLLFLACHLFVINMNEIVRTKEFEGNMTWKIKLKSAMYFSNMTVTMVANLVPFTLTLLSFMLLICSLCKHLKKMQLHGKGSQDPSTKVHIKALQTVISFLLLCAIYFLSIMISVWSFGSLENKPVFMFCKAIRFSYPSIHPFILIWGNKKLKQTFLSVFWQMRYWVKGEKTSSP
Put plainly: Own experiments on bitter receptor TAS2R43.

Another test concerns the target T2, TAS2R39 (Homo sapiens, UniProt P59534).
T2 sequence (P59534 1-338): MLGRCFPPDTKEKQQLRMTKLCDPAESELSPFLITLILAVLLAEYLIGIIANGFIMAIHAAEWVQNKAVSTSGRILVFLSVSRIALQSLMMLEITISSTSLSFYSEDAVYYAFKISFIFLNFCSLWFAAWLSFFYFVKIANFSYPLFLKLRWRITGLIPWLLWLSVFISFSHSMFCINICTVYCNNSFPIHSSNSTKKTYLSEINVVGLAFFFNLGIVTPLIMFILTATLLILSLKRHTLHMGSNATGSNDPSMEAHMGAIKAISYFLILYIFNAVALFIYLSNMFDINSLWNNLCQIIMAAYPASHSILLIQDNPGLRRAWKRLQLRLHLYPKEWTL
The following applies: Roland et al., J. Agric. Food Chem. 2013; cited from earlier work.

In test [2] the test system is HGT-1 cells. Put plainly: Proton secretion in HGT-1 cells (intracellular pH, SNARF-1-AM dye). Format: cell-based, human. As to the method: Human parietal cells (human gastric tumour cell line, HGT-1) were used as cellular model. These were provided by Dr. C. Laboisse (Laboratory of Pathological Anatomy, Nantes, France). The cells are cultured at standard conditions at 37° C., 5% CO2 in DMEM (Dulbecco's Modified […] Medium) with 4 g/L glucose, 10% FBS, 2% L-glutamine and 1% Penicillin/Streptomycin. For measuring the intracellular proton concentration, the cells are treated with Trypsin/EDTA, the cellular viability was determined with Trypan blue staining and 100 000 cells/well were seeded in black 96-well plates. […] The cells in the 96-well plates are washed once with Krebs-Hepes-buffer (KRHP) and incubated with the dye in a concentration of 3 μM dissolved in KRHP for 30 min at 37° C. and 5% CO2. Afterwards, the cells are washed twice with KRHP and substances stimulating gastric acid secretion, as for example 3 mM caffeine, 0.3 mM Theobromine or 3 mM Paracetamol alone or in combination with substances for reducing the gastric acid stimulating effect of the above substances, for example Homoeriodictyol (HED), in various concentrations in phenol red free DMEM in a volume of 100 μL were added; as a further control, the substances stimulating gastric acid secretion as named above were tested alone. Homoeriodictyol is dissolved in double distilled water. The final concentration of solvent, which is added to the cells, is at most 1%. The fluorescent dye is excited at the wave length of 488 nm and the emission is measured at 580 nm and 640 nm. […] For the calibration curve, the cells are treated with a potassium buffer in different pH values of from 7.2 to 8.2 and 2 μM Nigericin. Nigericin equilibrates the intracellular and extracellular pH value so that the intracellular pH value can be defined. The intracellular H^+-concentration is obtained from the intracellular pH value. The intracellular proton index (IPX) is calculated by log 2 transformation of the ratio of treated cells and untreated cells (control) ([…].; Somoza, M. M.; Hofmann, T.; Somoza, V., Mol Nutr Food Res 2012, 56, 325-335; Rubach, M.; Lang, R.; Hofmann, T.; Somoza, V., Ann N Y Acad Sci 2008, 1126, 310-4; […].; Hofmann, T.; Somoza, V., J Agric Food Chem 2010, 58, 4153-61; Weiss, […].; Blumberg, S.; Frank, O.; Hofmann, T.; Somoza, V., J Agric Food Chem 2010, 58, 1976-85; Liszt, K. I.; Walker, J.; Somoza, V., J Agric Food Chem 2012, 60, 7022-7030; Walker, J.; Hell, J.; Liszt, […].; Hofmann, T.; Somoza, V., J Agric Food Chem 2012, 60, 1405-12). The number of indicated replicates relates to technical replicates (tr) or the number of total replicates (n), which results from the number of technical replicates multiplied with the number of biological replicates. […] Statistics: one-way Anova with Holm-Sidak post-hoc test. Significant differences (p<0.05) are indicated by letters.

For the compound `Cn1c(=O)c2c(ncn2C)n(C)c1=O` [Caffeine, caffeine, reference compound], the “percentage increase (positive values) or decrease (negative values) of the proton secretion, mean” value in the test on HGT-1 cells [1] (3 mM caffeine alone (DMEM), 10 minutes stimulation) is listed as 54.80%; in the test on HGT-1 cells [1] (3 mM caffeine alone (DMEM), 10 minutes stimulation, listed as caffeine), 55%.

For the compound `COc1cc(C2CC(=O)c3c(O)cc(O)cc3O2)ccc1O` (centres unmarked) [HED, 3′-Methoxy-4′,5,7-trihydroxy flavanone], the “effect at receptor type TAS2R43” value on TAS2R43 is reported as “antagonist”. Besides, the “effect at receptor type TAS2R39” value at TAS2R39 was “agonist”. Further, the “percentage increase (positive values) or decrease (negative values) of the proton secretion, mean” value in the test on HGT-1 cells [2] (3 mM Paracetamol + 0.003 mM HED, 10 minutes) was 10.96%; in the test with HGT-1 cells [2] (3 mM Paracetamol + 0.03 mM HED, 10 minutes) it was 7% and 6.57%; with HGT-1 cells [2] (3 mM Paracetamol + 0.3 mM HED, 10 minutes) it was −46.24%; in the test with HGT-1 cells [1] (0.3 mM Theobromine + 0.003 mM HED, 10 minutes) it was 21.56%; with HGT-1 cells [1] (0.3 mM Theobromine + 0.03 mM HED, 10 minutes), 14% and 13.79%; in the test on HGT-1 cells [1] (0.3 mM Theobromine + 0.3 mM HED, 10 minutes), −16.92%. For the same compound, the “percentage increase (positive values) or decrease (negative values) of the proton secretion, mean” value in the test on HGT-1 cells [1] (3 mM caffeine + 0.03 mM HED, 10 minutes) was 38%; in the test on HGT-1 cells [1] (3 mM caffeine + 0.3 mM HED, 10 minutes), 20% and 20.20%. Besides, in the test with HGT-1 cells [2] (3 mM Paracetamol, addition of 0.3 mM HED, compared to control without active substances), the “effect on constitutive acid secretion” value is “significant reduction of the constitutive acid secretion”. Also, the “proton secretion induced by 3 mM Paracetamol” value in the test on HGT-1 cells [2] (addition of 0.003 or 0.03 mM HED) was “reduced”. In addition, the “proton secretion increased by” value in the test with HGT-1 cells [2] (simultaneous incubation with 3 mM Paracetamol and 0.003 mM HED) was found to be 11%. Moreover, in the test with HGT-1 cells [2] (simultaneous incubation with 3 mM Paracetamol and 0.3 mM HED), the “proton secretion reduced by” value was 46%. In the test with HGT-1 cells [1] (simultaneous incubation with 0.3 mM Theobromine and 0.3 mM HED), the “proton secretion decreased by” value is 17%. Also, the “effect on the proton secretion in HGT-1-cells” value in the test on HGT-1 cells [1] (sole HED, without gastric acid secretion-stimulating substances (WO 2014111436 A1)) is recorded as “no significant effect”.

`CC(=O)Nc1ccc(O)cc1` [Paracetamol, N-(4-Hydroxyphenyl)acetamide]: in the test with HGT-1 cells [2] (3 mM Paracetamol alone (DMEM), 10 minutes stimulation), the “percentage increase (positive values) or decrease (negative values) of the proton secretion, mean” value was 24% and 24.10%.

Turning to `Cn1cnc2c1c(=O)[nH]c(=O)n2C` [Theobromine, reference compound], the “percentage increase (positive values) or decrease (negative values) of the proton secretion, mean” value in the test on HGT-1 cells [1] (0.3 mM Theobromine alone (DMEM), 10 minutes stimulation) was 21% and 20.92%.
